Source: patent publication US20070207957A1, “Composition For Accelerating Alcohol Metabolism Or Relieving Fatigue By Gluconeogenesis” (Kirin Beer Kabushiki Kaisha, priority 2004, published 2007)
Where two headings read alike, the source gives them in different places.

Assays:
[1] = rats; 20 mg/kg caffeine and/or 0.1 g/kg tryptophan 1 h before ethanol; blood two hours after ethanol
Experimental: One hour later, ethanol was administered. After further two hours, blood was taken from the aorta abdominalis under anesthesia with pentobarbital (Sigma).

[2] = Blood ethanol level in rats, caffeine+serine administered before ethanol; type: in vivo, Wistar rats; conditions: 20 mg/kg caffeine and/or 0.1 g/kg serine orally 1 h before ethanol 2 g/kg, blood 1, 2, 3 and 5 hours, vs water control
Experimental: Four groups were prepared in total as follow. A control group of rats (n=6) was prepared by orally administering water. […] . […] Blood was taken from the cervical vein 1, 2, 3 and 5 hours after the administration. Immediately upon taking, the blood was mixed well with a solution containing 0.6N perchlorate and 0.9% NaCl, and centrifugally separated at 3000 rpm for 20 minutes to remove protein. The ethanol concentration of the supernatant was measured with a gas chromatograph manufactured by Shimazu Corporation (Eriksson C J P et al., Anal. Biochem. Vol. 125, 259-263 (1982)).

serine dehydratase (SDS) = assay: Liver mRNA expression after caffeine administration (RT-PCR), SDS; conditions: rats, 100 mg/kg caffeine orally, two hours, corrected on housekeeping gene P0
[3] = Blood glucose level in rats after caffeine administration; conditions: 100 mg/kg body weight caffeine orally, plasma two hours later, vs water control
[4] = mice; Kakuda T et al. 1996; cited from earlier work
[5] = Recovery from hypoglycemia at the time of fatigue (swimming mice); type: in vivo, Balb/c mice; conditions: exhausted mice; 80 mg/kg caffeine and/or 200 mg/kg serine orally; vs water control
Experimental: A swimming experiment of male Balb/c mice (Japan SLC) was performed under flowing water by use of a flowing-water vessel (developed by Matsumoto in Kyoto University). The mice (4 weeks old) were allowed to swim once in two different days at a flow rate of about 4.5 L/min (about 16 cm/sec) for 15 to 20 minutes to allow the mice to get use to the swimming environment. On the next week, these mice (5 weeks old) were fasted for 3 hours. After that, blood was taken from the tail and blood glucose level was measured by GLUTESTACE (Sanwa Kagaku Kenkyusho Co., Ltd.). Immediately after this, the mice were allowed to swim at a flow rate of about 5.5 L/min (about 19 cm/sec), in an intermittent manner. Intermittent swim was performed repeating a cycle consisting of 10-minute swim and 10-minute rest, twice, and then repeating a cycle consisting of 5-minute swim and 10-minute rest until the mice became too exhausted to swim. After the mice too exhausted to swim were allowed to leave alone for 15 minutes, the blood glucose level was checked. […]. A blood glucose level was measured with time.

[6] = Ethanol metabolism in human (ND), sample intake before ethanol: blood levels; type: in vivo; conditions: for blood ethanol level: human ALDH2*1/2 (ND), 3 mg/kg caffeine and/or 30 mg/kg serine orally 1 h before 0.4 g/kg ethanol, 30-180 minutes, vs control; for blood acetaldehyde level: human ND, 3 mg/kg caffeine and/or 30 mg/kg serine 1 h before 0.4 g/kg ethanol
Experimental: The subjects were asked to have no food and water from wake-up time to participate in the test. A control test was performed by 8 persons (as volunteers). Of the 8 persons participated in the control test, 5 persons were chosen to perform a sample administration test. […] . One hour after the sample intake, 5% ethanol solution (white liquor diluted with water) was divided into 6 portions and orally taken 6 times at the intervals of 4 minutes so as to take 0.4 g ethanol per a body weight (kg). Blood was taken immediately before alcohol drinking, 30, 60, 90, 120, and 180 minutes after alcohol drinking. Immediately upon taking blood, blood was mixed with a solution containing 0.6N perchlorate and 0.9% NaCl, and centrifugally separated at 3000 rpm for 20 minutes to remove protein. The ethanol, acetaldehyde and acetate concentrations of the supernatant were measured by gas chromatography manufactured by Perkin Elmer Corporation or Shimazu Corporation (Eriksson C J P et al., Anal. Biochem. Vol. 125, 259-263 (1982)). […] Furthermore, using the same plasma, blood lactate and pyruvate levels were measured by use of determiner LA (Kyowa Medics, Tokyo, Japan) and determiner PA (Kyowa Medics), respectively. Based on the ratio of lactate/pyruvate, the ratio of NADH/NAD^+ was calculated. On the other hand, at the same time of taking blood, 9-rank subjective evaluation was performed by the subjects with respect to “feeling of drunk” (by scores 0 to 8) and comfortable feeling (uncomfortable (score −4) to comfortable (score 4)).

[7] = Blood ethanol in rats, caffeine + each of 20 amino acids; conditions: 0.1 g/kg amino acid together with 20 mg/kg caffeine 1 h before ethanol 2 g/kg, blood two hours after ethanol
Source text: One hour after the administration of each sample, ethanol (2 g/kg body weight) was orally administered. After further two hours, blood was taken from the aorta abdominalis under anesthesia with pentobarbital (Sigma).

[8] = Dissolution of serine in non-sugar coffee; conditions: 100, 500, 1000, 1500 and 2000 mg serine in 100 ml coffee
[9] = Blood ethanol in rats, sample administered after ethanol; conditions: 10 mg/kg caffeine and/or 100 mg/kg serine orally 1 h after ethanol 2 g/kg, blood five hours after ethanol, vs control
[10] = rat, in vivo; cited from earlier work

SMILES | blood ethanol level [1] | blood ethanol level [2] | mRNA expression level of SDS in liver (serine dehydratase (SDS)) | blood glucose level [3] | amount needed to significantly reduce the blood ethanol level [4] [mg/kg body weight] | blood glucose level: recovery from hypoglycemia at the time of fatigue [5] | blood ethanol level [6] | blood acetaldehyde level [6] | relative blood ethanol level compared to the caffeine-only group (regarded as 1) [7] | dissolution in non-sugar coffee [8] | relative blood ethanol concentration [9] | acute half lethal dose [10] [g/kg body weight]
Cn1c(=O)c2c(ncn2C)n(C)c1=O [caffeine, 3,7-dihydro-1,3,7-trimethyl-1H-purine-2,6-dione, reference compound] | A slight downward tendency was observed in the caffeine administration group, but it is not significant change | significantly decreased 2 hours after ethanol administration; however, a significant effect was not observed in other time point | metabolism of serine and tryptophan was enhanced | increasing a blood glucose level | 300 | recovered from hypoglycemia | rarely changed | did not significantly change | – | – | – | –
N[C@@H](Cc1c[nH]c2ccccc12)C(=O)O [tryptophan] | No change was observed | – | – | – | – | – | – | – | blood ethanol reduction effect was observed | – | – | –
N[C@@H](CO)C(=O)O [serine] | – | slightly decreased compared to the control group; however, this change observed in the all measurement time points had not a significance | – | – | – | recovered from hypoglycemia | rarely changed | did not significantly change | blood ethanol reduction effect was observed | easily dissolved in non-sugar coffee without any appearance problem such as precipitation and turbidity | A slight downward tendency was observed in the serine single administration group compared to the control group, but it was not significant change | 14
